Reference: ChEMBL document CHEMBL3885881, “DrugMatrix”

Species: Rattus norvegicus
Experiment: DrugMatrix - Regimen: Daily Repeat
Format: toxicity, organism-based, Sprague-Dawley
Set-up: regimen Daily Repeat, gender Male, age 6-8 weeks
Settings: in vivo, iv, vehicle 100 % SALINE; for ABSOLUTE BASOPHIL / ABSOLUTE EOSINOPHIL / ABSOLUTE LYMPHOCYTE / ABSOLUTE MONOCYTE / ABSOLUTE SEGMENTED NEUTROPHIL / BASOPHIL / EOSINOPHIL / ERYTHROCYTE COUNT / HEMATOCRIT / HEMOGLOBIN / LEUKOCYTE COUNT / LYMPHOCYTE / MEAN CORPUSCULAR HEMOGLOBIN / MEAN CORPUSCULAR HEMOGLOBIN CONCENTRATION / MEAN CORPUSCULAR VOLUME / MONOCYTE / NEUTROPHIL / NUCLEATED RED BLOOD CELLS / PLATELET COUNT: tissue Blood; for ALANINE AMINOTRANSFERASE / ALBUMIN / ALKALINE PHOSPHATASE / ASPARTATE AMINOTRANSFERASE / BLOOD UREA NITROGEN / CARBON DIOXIDE / CHLORIDE / CHOLESTEROL / CREATINE PHOSPHOKINASE / CREATININE / GLUCOSE / LACTATE DEHYDROGENASE / LIPASE / PHOSPHORUS / POTASSIUM / SODIUM / TOTAL BILIRUBIN / TOTAL PROTEIN / URIC ACID: tissue Plasma
[1] = 0.02 mg/kg, 72 h, dose level Low, time 3 day
[2] = 0.02 mg/kg, 120 h, dose level Low, time 5 day
[3] = 43 mg/kg, 72 h, dose level High, time 3 day

CC(CCc1ccc(O)cc1)NCCc1ccc(O)c(O)c1 (stereo unspecified) [DOBUTAMINE]
ABSOLUTE BASOPHIL [1]: 0 CELLS/uL | ABSOLUTE EOSINOPHIL [1]: 0 CELLS/uL | ABSOLUTE LYMPHOCYTE [1]: 16404 CELLS/uL | ABSOLUTE MONOCYTE [1]: 67.67 CELLS/uL | ABSOLUTE SEGMENTED NEUTROPHIL [1]: 1828.33 CELLS/uL | BASOPHIL [1]: 0% | EOSINOPHIL [1]: 0% | ERYTHROCYTE COUNT [1]: 5.5 x10E6/uL | HEMATOCRIT [1]: 35.6% | HEMOGLOBIN [1]: 13.9 G/DL | LEUKOCYTE COUNT [1]: 18.3 x10E3/uL | LYMPHOCYTE [1]: 89.67% | MEAN CORPUSCULAR HEMOGLOBIN [1]: 25.27 pg | MEAN CORPUSCULAR HEMOGLOBIN CONCENTRATION [1]: 39.03 G/DL | MEAN CORPUSCULAR VOLUME [1]: 64.67 fL | MONOCYTE [1]: 0.33% | NEUTROPHIL [1]: 10% | NUCLEATED RED BLOOD CELLS [1]: 0 /100WBC | PLATELET COUNT [1]: 1067.33 x10E3/uL | ALANINE AMINOTRANSFERASE [1]: 57.33 u/L | ALBUMIN [1]: 4.07 G/DL | ALKALINE PHOSPHATASE [1]: 391.33 u/L | ASPARTATE AMINOTRANSFERASE [1]: 107.33 u/L | BLOOD UREA NITROGEN [1]: 15.67 mg/dL | CARBON DIOXIDE [1]: 28 mmol/L | CHLORIDE [1]: 97.33 MEQ/L | CHOLESTEROL [1]: 78 mg/dL | CREATINE PHOSPHOKINASE [1]: 548.67 u/L | CREATININE [1]: 0.13 mg/dL | GLUCOSE [1]: 175.33 mg/dL | LACTATE DEHYDROGENASE [1]: 236 u/L | LIPASE [1]: 10.33 u/L | PHOSPHORUS [1]: 12.27 mg/dL | POTASSIUM [1]: 7.46 MEQ/L | SODIUM [1]: 141.6 MEQ/L | TOTAL BILIRUBIN [1]: 0.3 mg/dL | TOTAL PROTEIN [1]: 5.77 G/DL | URIC ACID [1]: 1.63 mg/dL | ABSOLUTE BASOPHIL [2]: 0 CELLS/uL | ABSOLUTE EOSINOPHIL [2]: 0 CELLS/uL | ABSOLUTE LYMPHOCYTE [2]: 19433.33 CELLS/uL | ABSOLUTE MONOCYTE [2]: 145.67 CELLS/uL | ABSOLUTE SEGMENTED NEUTROPHIL [2]: 1621 CELLS/uL | BASOPHIL [2]: 0% | EOSINOPHIL [2]: 0% | ERYTHROCYTE COUNT [2]: 5.54 x10E6/uL | HEMATOCRIT [2]: 35.5% | HEMOGLOBIN [2]: 14 G/DL | LEUKOCYTE COUNT [2]: 21.2 x10E3/uL | LYMPHOCYTE [2]: 92% | MEAN CORPUSCULAR HEMOGLOBIN [2]: 25.27 pg | MEAN CORPUSCULAR HEMOGLOBIN CONCENTRATION [2]: 39.47 G/DL | MEAN CORPUSCULAR VOLUME [2]: 64.03 fL | MONOCYTE [2]: 0.67% | NEUTROPHIL [2]: 7.33% | NUCLEATED RED BLOOD CELLS [2]: 0.33 /100WBC | PLATELET COUNT [2]: 1240.33 x10E3/uL | ALANINE AMINOTRANSFERASE [2]: 61 u/L | ALBUMIN [2]: 4.03 G/DL | ALKALINE PHOSPHATASE [2]: 438.67 u/L | ASPARTATE AMINOTRANSFERASE [2]: 84.33 u/L | BLOOD UREA NITROGEN [2]: 18.67 mg/dL | CARBON DIOXIDE [2]: 27.33 mmol/L | CHLORIDE [2]: 101.33 MEQ/L | CHOLESTEROL [2]: 73.33 mg/dL | CREATINE PHOSPHOKINASE [2]: 325 u/L | CREATININE [2]: 0.14 mg/dL | GLUCOSE [2]: 163 mg/dL | LACTATE DEHYDROGENASE [2]: 262.67 u/L | LIPASE [2]: 8.67 u/L | PHOSPHORUS [2]: 11.8 mg/dL | POTASSIUM [2]: 7.21 MEQ/L | SODIUM [2]: 140.77 MEQ/L | TOTAL BILIRUBIN [2]: 0.13 mg/dL | TOTAL PROTEIN [2]: 6.03 G/DL | URIC ACID [2]: 1.63 mg/dL | ABSOLUTE BASOPHIL [3]: 0 CELLS/uL | ABSOLUTE EOSINOPHIL [3]: 0 CELLS/uL | ABSOLUTE LYMPHOCYTE [3]: 11605 CELLS/uL | ABSOLUTE MONOCYTE [3]: 107 CELLS/uL | ABSOLUTE SEGMENTED NEUTROPHIL [3]: 488 CELLS/uL | BASOPHIL [3]: 0% | EOSINOPHIL [3]: 0% | ERYTHROCYTE COUNT [3]: 5.51 x10E6/uL | HEMATOCRIT [3]: 36.1% | HEMOGLOBIN [3]: 14.37 G/DL | LEUKOCYTE COUNT [3]: 12.2 x10E3/uL | LYMPHOCYTE [3]: 95% | MEAN CORPUSCULAR HEMOGLOBIN [3]: 26.1 pg | MEAN CORPUSCULAR HEMOGLOBIN CONCENTRATION [3]: 39.8 G/DL | MEAN CORPUSCULAR VOLUME [3]: 65.6 fL
